Converted amounts (≈) assume the structure as drawn.
Tests used:
[1] = molecular target: GABA-A receptor; alpha-1/beta-2/gamma-2 (Homo sapiens) (UniProt P14867+P47870+P18507); assay: (§1) Positive allosteric modulation of GABAA receptor alpha1beta2gamma2 (unknown origin) expressed in mouse LTK cells assessed as potentiation of GABA-mediated increase in channel current under holding potential at -80 mV at 0.01 to 10 uM preincubated for 30 secs followed by GABA stimulation for 2 secs by automated patch clamp assay relative to GABA; format: cell-based
[2] = molecular target: T1, GABA-A receptor; alpha-1/beta-2/gamma-2 (Homo sapiens, UniProt P14867+P18507+P47870); assay: as §1, with “mV” for “mV at 0.01 to 10 uM”, “assay” for “assay relative to GABA”; format: cell-based
T1 sequence (P14867 whole entry): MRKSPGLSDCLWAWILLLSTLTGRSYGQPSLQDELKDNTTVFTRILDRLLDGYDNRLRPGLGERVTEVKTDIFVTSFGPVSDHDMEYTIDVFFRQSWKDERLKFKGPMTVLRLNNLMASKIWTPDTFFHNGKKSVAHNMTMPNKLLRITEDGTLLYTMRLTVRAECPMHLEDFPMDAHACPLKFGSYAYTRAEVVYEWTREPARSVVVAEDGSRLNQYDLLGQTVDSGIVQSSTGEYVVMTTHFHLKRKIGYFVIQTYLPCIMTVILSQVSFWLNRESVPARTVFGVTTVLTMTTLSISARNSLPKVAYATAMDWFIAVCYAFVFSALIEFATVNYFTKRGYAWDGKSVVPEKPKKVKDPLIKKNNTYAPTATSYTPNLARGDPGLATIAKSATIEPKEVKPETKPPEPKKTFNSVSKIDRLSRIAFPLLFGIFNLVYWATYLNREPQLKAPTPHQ
T1 sequence (P47870 whole entry): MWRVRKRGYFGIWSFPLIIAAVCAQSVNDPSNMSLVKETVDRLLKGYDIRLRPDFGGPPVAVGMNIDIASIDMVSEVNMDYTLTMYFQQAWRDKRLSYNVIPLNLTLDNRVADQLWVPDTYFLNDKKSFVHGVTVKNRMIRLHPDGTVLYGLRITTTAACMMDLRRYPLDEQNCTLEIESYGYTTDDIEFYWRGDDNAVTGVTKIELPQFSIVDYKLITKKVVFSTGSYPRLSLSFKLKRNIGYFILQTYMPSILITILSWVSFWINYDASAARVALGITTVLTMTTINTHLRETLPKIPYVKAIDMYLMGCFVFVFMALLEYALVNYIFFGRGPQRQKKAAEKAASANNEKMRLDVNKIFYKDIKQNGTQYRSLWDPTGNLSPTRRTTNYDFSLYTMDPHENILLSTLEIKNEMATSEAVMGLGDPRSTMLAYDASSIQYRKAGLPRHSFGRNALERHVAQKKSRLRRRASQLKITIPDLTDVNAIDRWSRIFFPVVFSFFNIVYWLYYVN
T1 sequence (P18507 whole entry): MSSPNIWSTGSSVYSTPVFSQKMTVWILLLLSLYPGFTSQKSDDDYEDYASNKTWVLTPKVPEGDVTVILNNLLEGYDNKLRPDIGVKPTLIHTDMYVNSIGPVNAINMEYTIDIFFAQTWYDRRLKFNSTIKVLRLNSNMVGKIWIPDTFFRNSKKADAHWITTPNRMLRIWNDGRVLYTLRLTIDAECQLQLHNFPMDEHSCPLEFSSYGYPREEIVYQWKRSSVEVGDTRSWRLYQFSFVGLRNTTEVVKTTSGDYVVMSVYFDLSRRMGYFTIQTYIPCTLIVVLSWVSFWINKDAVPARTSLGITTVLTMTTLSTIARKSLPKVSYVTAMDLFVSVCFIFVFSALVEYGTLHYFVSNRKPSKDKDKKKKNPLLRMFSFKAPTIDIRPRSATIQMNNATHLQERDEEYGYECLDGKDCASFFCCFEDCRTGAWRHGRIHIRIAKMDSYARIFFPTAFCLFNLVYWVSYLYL

[3] = Displacement of [35S]TBPS from GABA-A receptor in Sprague-Dawley rat cerebral cortex cell membranes after 90 mins in presence of GABA by liquid scintillation counting
[4] = molecular target: Gamma-aminobutyric acid receptor subunit alpha-4/beta3/delta (Homo sapiens, UniProt O14764+P28472+P48169); assay: as §1, with “alpha4beta3delta” for “alpha1beta2gamma2”, “CHO” for “mouse LTK”, “mV” for “mV at 0.01 to 10 uM”, “manual” for “automated”, “assay” for “assay relative to GABA”; format: cell-based
[5] = molecular target: GABA-A receptor alpha-4/beta-3/delta (Homo sapiens, UniProt P28472+P48169+); assay: as §1, with “alpha4beta3delta” for “alpha1beta2gamma2”, “CHO” for “mouse LTK”, “manual” for “automated”; format: cell-based; settings: 2 s
[6] = Oral bioavailability in Sprague-Dawley rat at 20 mg/kg measured up to 8 hrs post dose by LC/MS-MS analysis; format: ADME, organism-based; settings: in vivo
[7] = Ratio of drug level in Sprague-Dawley rat brain to plasma at 5 mg/kg, iv measured at 30 mins post dose by LC/MS-MS analysis; format: ADME, organism-based; settings: read-out: BPR
[8] = Oral bioavailability in CD1 mouse at 20 mg/kg measured up to 8 hrs post dose by LC/MS-MS analysis; format: ADME, organism-based; settings: in vivo
[9] = Clearance in mouse hepatic microsomes at 10 uM preincubated for 5 mins followed by NADPH addition measured over 60 mins by HPLC-MS/MS analysis; format: ADME, Microsome; settings: liver microsomes
[10] = Clearance in human hepatic microsomes at 10 uM preincubated for 5 mins followed by NADPH addition measured over 60 mins by HPLC-MS/MS analysis; format: ADME, Microsome; settings: liver microsomes
[11] = Ratio of drug level in CD1 mouse brain to plasma at 5 mg/kg, iv measured at 30 mins post dose by LC/MS-MS analysis; format: ADME, organism-based; settings: read-out: BPR
[12] = Thermodynamic aqueous solubility of compound at 10 uM sonicated for 1 min followed by incubation for 1 hr by HPLC-MS/MS; format: physicochemical; settings: buffer; read-out: Therm_solubility
[13] = Clearance in CD1 mouse at 5 mg/kg, iv or 20 mg/kg, po measured up to 8 hrs post dose by LC/MS-MS analysis; format: ADME, organism-based; settings: in vivo
[14] = Clearance in rat hepatic microsomes at 10 uM preincubated for 5 mins followed by NADPH addition measured over 60 mins by HPLC-MS/MS analysis; format: ADME, Microsome; settings: liver microsomes
[15] = Lipophilicity, logD of compound at 20 uM at pH 7.4 by HPLC/MS-MS analysis; format: physicochemical; settings: buffer
[16] = Clearance in Sprague-Dawley rat at 5 mg/kg, iv or 20 mg/kg, po measured up to 8 hrs post dose by LC/MS-MS analysis; format: ADME, organism-based; settings: in vivo

Sequence of Gamma-aminobutyric acid receptor subunit alpha-4/beta3/delta (P28472 whole entry): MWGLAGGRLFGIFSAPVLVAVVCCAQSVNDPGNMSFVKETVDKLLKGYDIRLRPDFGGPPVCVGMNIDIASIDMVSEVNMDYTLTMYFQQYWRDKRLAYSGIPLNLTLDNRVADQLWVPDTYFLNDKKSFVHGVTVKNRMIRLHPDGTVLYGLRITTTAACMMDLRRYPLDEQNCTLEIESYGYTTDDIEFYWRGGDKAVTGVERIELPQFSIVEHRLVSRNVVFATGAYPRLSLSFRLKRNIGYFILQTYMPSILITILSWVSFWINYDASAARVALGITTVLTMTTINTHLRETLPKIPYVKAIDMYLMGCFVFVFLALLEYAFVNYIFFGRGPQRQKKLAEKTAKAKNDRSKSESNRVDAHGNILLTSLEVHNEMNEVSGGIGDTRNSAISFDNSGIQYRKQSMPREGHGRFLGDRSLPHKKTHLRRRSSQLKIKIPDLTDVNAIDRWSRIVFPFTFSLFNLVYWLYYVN
Sequence of Gamma-aminobutyric acid receptor subunit alpha-4/beta3/delta (P48169 whole entry): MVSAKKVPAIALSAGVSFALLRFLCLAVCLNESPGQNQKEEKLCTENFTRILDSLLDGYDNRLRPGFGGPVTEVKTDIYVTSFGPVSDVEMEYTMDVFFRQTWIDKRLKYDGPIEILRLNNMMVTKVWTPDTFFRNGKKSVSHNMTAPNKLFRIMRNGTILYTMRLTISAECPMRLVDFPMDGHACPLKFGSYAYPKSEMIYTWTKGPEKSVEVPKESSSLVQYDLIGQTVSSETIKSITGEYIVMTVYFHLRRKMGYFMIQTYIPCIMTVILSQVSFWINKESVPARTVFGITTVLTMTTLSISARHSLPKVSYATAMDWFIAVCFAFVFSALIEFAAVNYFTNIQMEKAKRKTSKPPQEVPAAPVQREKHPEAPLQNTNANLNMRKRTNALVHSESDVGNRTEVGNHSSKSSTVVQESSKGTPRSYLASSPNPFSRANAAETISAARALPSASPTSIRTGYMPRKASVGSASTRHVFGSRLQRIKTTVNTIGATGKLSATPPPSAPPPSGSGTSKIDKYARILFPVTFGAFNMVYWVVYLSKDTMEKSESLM
Sequence of Gamma-aminobutyric acid receptor subunit alpha-4/beta3/delta (O14764 whole entry): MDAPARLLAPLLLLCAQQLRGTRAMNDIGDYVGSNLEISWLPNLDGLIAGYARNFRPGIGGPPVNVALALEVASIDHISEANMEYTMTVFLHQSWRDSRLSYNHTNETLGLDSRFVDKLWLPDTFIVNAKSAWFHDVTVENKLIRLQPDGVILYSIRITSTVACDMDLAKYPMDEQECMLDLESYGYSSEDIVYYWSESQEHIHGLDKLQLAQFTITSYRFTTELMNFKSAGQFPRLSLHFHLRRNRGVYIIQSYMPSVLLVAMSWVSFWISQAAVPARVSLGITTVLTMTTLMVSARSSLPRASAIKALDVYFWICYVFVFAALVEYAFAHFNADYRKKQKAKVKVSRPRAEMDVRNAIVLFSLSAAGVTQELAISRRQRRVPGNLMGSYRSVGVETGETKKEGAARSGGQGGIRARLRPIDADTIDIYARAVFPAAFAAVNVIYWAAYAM
Sequence of GABA-A receptor alpha-4/beta-3/delta (P28472 whole entry): as the sequence (P28472 whole entry) above
Sequence of GABA-A receptor alpha-4/beta-3/delta (P48169 whole entry): as the sequence (P48169 whole entry) above
Sequence of GABA-A receptor alpha-4/beta-3/delta (Q06278 whole entry, further chain): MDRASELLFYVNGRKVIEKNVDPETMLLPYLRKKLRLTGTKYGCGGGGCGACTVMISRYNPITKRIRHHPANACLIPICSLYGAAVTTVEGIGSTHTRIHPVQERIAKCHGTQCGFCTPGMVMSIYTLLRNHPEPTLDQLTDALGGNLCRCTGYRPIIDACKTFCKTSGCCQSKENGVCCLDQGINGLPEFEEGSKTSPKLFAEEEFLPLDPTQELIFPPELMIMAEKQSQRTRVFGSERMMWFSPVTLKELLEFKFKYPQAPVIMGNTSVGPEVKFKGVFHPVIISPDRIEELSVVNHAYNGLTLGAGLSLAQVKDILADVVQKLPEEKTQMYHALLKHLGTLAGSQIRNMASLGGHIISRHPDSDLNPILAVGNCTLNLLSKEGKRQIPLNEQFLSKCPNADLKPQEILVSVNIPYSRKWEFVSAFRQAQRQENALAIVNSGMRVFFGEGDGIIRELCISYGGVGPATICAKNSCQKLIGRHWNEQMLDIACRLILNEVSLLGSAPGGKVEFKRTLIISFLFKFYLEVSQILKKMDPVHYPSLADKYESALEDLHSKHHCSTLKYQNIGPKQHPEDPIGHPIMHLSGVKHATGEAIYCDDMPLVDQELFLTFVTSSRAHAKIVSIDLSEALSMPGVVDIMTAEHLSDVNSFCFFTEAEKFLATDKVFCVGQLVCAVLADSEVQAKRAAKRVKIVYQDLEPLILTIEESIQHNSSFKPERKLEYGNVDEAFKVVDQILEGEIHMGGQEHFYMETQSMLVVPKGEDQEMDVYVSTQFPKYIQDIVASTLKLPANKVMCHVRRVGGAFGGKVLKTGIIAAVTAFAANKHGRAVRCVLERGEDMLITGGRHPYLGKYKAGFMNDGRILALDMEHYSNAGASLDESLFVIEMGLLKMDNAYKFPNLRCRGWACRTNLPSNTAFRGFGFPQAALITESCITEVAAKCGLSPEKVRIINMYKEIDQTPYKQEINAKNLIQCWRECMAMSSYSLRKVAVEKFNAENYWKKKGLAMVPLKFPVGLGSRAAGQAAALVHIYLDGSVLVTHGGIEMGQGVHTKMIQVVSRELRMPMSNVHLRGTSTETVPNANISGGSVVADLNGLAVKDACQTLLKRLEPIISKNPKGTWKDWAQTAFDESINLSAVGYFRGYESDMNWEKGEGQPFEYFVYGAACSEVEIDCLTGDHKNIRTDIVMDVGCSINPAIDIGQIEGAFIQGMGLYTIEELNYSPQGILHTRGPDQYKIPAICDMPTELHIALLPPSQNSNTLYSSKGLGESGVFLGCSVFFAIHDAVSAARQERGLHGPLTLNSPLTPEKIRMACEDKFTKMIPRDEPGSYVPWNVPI

| SMILES | Emax [1] [%] | EC50 [2] [nM] | IC50 [3] [nM] | EC50 [4] [nM] | Emax [5] [%] | bioavailability [6] [%] | Kp at 0.5 h [7] | bioavailability [8] [%] | CLhep predicted at 10 µM [9] [mL/min/kg] | CLhep predicted at 10 µM [10] [mL/min/kg] | Kp at 0.5 h [11] | solubility thermodynamic at 1 h, 10 µM [12] [µM] | clearance [13] [mL/min/kg] | CLhep predicted at 10 µM [14] [mL/min/kg] | logD at 20 µM [15] | clearance [16] [mL/min/kg] |
| --- | --- | --- | --- | --- | --- | --- | --- | --- | --- | --- | --- | --- | --- | --- | --- | --- |
| C[C@@]1(O)CC[C@H]2[C@H](CC[C@@H]3[C@@H]2CC[C@]2(C)[C@@H](C(=O)Cn4cc([N+](=O)[O-])cn4)CC[C@@H]32)C1 | 440 | 1160 | 18 |  |  |  |  |  |  |  |  |  |  |  |  |  |
| Cc1ccn(CC(=O)[C@H]2CC[C@H]3[C@@H]4CC[C@@H]5C[C@](C)(O)CC[C@@H]5[C@H]4CC[C@]23C)n1 | > 695 | > 3650 | 45 |  |  |  |  |  |  |  |  |  |  |  |  |  |
| C[C@@]1(O)CC[C@H]2[C@H](CC[C@@H]3[C@@H]2CC[C@]2(C)[C@@H](C(=O)Cn4ncc(C#N)n4)CC[C@@H]32)C1 | > 154 | > 3000 | 78 |  |  |  |  |  |  |  |  |  |  |  |  |  |
| Cc1cnnn1CC(=O)[C@H]1CC[C@H]2[C@@H]3CC[C@@H]4C[C@](C)(O)CC[C@@H]4[C@H]3CC[C@]12C | 1120 | 1600 | > 3000 | 2010 |  |  |  |  |  |  |  |  |  |  |  |  |
| Cc1ccnn1CC(=O)[C@H]1CC[C@H]2[C@@H]3CC[C@@H]4C[C@](C)(O)CC[C@@H]4[C@H]3CC[C@]12C | > 469 | > 10000 | 80 |  |  |  |  |  |  |  |  |  |  |  |  |  |
| COc1cnn(CC(=O)[C@H]2CC[C@H]3[C@@H]4CC[C@@H]5C[C@](C)(O)CC[C@@H]5[C@H]4CC[C@]23C)c1 | 434 | 1760 | 28 | 2050 | 750 |  |  |  |  |  |  |  |  |  |  |  |
| C[C@@]1(O)CC[C@H]2[C@H](CC[C@@H]3[C@@H]2CC[C@]2(C)[C@@H](C(=O)Cn4nccn4)CC[C@@H]32)C1 | 663 | 125 | 11 | 240 | 579 | 25 | 1.8 | 17 | 66.7 | 3.33 | 1 | 7.3 (≈ 2.81 µg/mL) | 43.3 | 45 |  |  |
| CC(=O)[C@H]1CC[C@H]2[C@@H]3CC[C@H]4C[C@H](O)CC[C@]4(C)[C@H]3CC[C@]12C [BREXANOLONE] | 510 | 237 | 22 | 75.5 | 430 | 2 | 1.8 |  | 66.7 |  | 1.9 | 3.3 (≈ 1.05 µg/mL) | 200 | 55 |  |  |
| CC[C@@]1(O)CC[C@H]2[C@H](CC[C@@H]3[C@@H]2CC[C@]2(C)[C@@H](C(=O)Cn4cc(C#N)cn4)CC[C@@H]32)C1 | > 297 | > 3000 | 36 |  |  |  |  |  |  |  |  |  |  |  |  |  |
| C[C@@]1(O)CC[C@H]2[C@H](CC[C@@H]3[C@@H]2CC[C@]2(C)[C@@H](C(=O)Cn4cc(Cl)cn4)CC[C@@H]32)C1 | 642 | 1500 | 13 | 744 |  |  |  |  |  |  |  |  |  |  |  |  |
| Cc1cn(CC(=O)[C@H]2CC[C@H]3[C@@H]4CC[C@@H]5C[C@](C)(O)CC[C@@H]5[C@H]4CC[C@]23C)nn1 | > 530 | > 3000 | 17 |  |  |  |  |  |  |  |  |  |  |  |  |  |
| COC[C@@]1(O)CC[C@H]2[C@H](CC[C@@H]3[C@@H]2CC[C@]2(C)[C@@H](C(=O)Cn4cc(C#N)cn4)CC[C@@H]32)C1 | > 1130 | > 3000 | 16 | 577 | 610 |  |  |  |  |  |  |  |  |  |  |  |
| C[C@@]1(O)CC[C@H]2[C@H](CC[C@@H]3[C@@H]2CC[C@]2(C)[C@@H](C(=O)Cn4cc(C(N)=O)cn4)CC[C@@H]32)C1 | > 357 | > 3000 | 64 |  |  |  |  |  |  |  |  |  |  |  |  |  |
| Cc1cnn(CC(=O)[C@H]2CC[C@H]3[C@@H]4CC[C@@H]5C[C@](C)(O)CC[C@@H]5[C@H]4CC[C@]23C)c1 | 427 | 291 | 49 | 1360 | 841 | 9.5 | 2 | 6 | 85 | 8.33 |  | 7 (≈ 2.79 µg/mL) | 60 | 50 | 5 | 63.3 |
| Cc1cnn(CC(=O)[C@H]2CC[C@H]3[C@@H]4CC[C@@H]5C[C@](C)(O)CC[C@@H]5[C@H]4CC[C@]23C)n1 | 532 | 1640 | 21 | 192 | 614 | 6 |  | 39 | 81.7 | 5 | 1 | 7 (≈ 2.8 µg/mL) | 61.7 | 53.3 |  | 50 |
| C[C@@]1(O)CC[C@H]2[C@H](CC[C@@H]3[C@@H]2CC[C@]2(C)[C@@H](C(=O)Cn4cc(C(F)(F)F)cn4)CC[C@@H]32)C1 | 339 | 1050 | 8 | 1600 |  |  |  |  |  |  |  |  |  |  |  |  |
| C[C@@]1(O)CC[C@H]2[C@H](CC[C@@H]3[C@@H]2CC[C@]2(C)[C@@H](C(=O)Cn4cc(C#N)nn4)CC[C@@H]32)C1 |  |  | 251 |  |  |  |  |  |  |  |  |  |  |  |  |  |
| C[C@@]1(O)CC[C@H]2[C@H](CC[C@@H]3[C@@H]2CC[C@]2(C)[C@@H](C(=O)Cn4cccn4)CC[C@@H]32)C1 | 474 | 979 | 30 | 1240 | 583 | 19 | 1.1 | 5 | 81.7 | 5 |  | 8 (≈ 3.08 µg/mL) | 75 | 41.7 | 4.6 | 28.3 |
| C[C@@]1(O)CC[C@H]2[C@H](CC[C@@H]3[C@@H]2CC[C@]2(C)[C@@H](C(=O)Cn4cc(C(=O)O)cn4)CC[C@@H]32)C1 |  |  | > 3000 |  |  |  |  |  |  |  |  |  |  |  |  |  |

From ChEMBL document CHEMBL4038335, “Neuroactive Steroids. 2. 3α-Hydroxy-3β-methyl-21-(4-cyano-1H-pyrazol-1'-yl)-19-nor-5β-pregnan-20-one (SAGE-217): A Clinical Next Generation Neuroactive Steroid Positive Allosteric Modulator of the (γ-Aminobutyric Acid)A Receptor” (J Med Chem, 2017)
